Experiments:
Format in all cases: cell-based
[1] = target: human EGFR exon 20 insertion ASV (V769_D770insASV) (Homo sapiens (Human), UniProt P00533, INS769ASV); test: Ba/F3-EGFR-Exon20-ASV cell anti-proliferative assay (CellTiter 96 MTS, 72 h); details: Ba/F3-EGFR-Exon20-ASV cells;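 further: Ba/F3 cells bearing the EGFR exon 20 ASV insertion, a line able to proliferate without IL-3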
[2] = target: human EGFR E746-A750 deletion and T790M Mutation (DT) (Homo sapiens (Human), UniProt P00533, DEL746-750/T790M); test: Ba/F3-EGFR-Del/T790M cell anti-proliferative assay (CellTiter 96 MTS, 72 h); details: Ba/F3-EGFR-Del/T790M cells; for IC50: read-out: EGFR exon 19 deletion and T790M mutation IC50
Experimental: An expression vector, pLVX-IRES puro (Clontech) coding for human EGFR E746-A750 deletion and T790M Mutation, was transfected into HEK293 cells by the Trans-Lentiviral ORF Packaging System (Thermo Scientific), to produce virus encoding EGFR exon 19 deletion and T790M mutations. […] Ba/F3 cells expressing EGFR E746-A750 deletion and T790M Mutation (named Ba/F3-EGFR-Del/T790M) can proliferate in the absence of IL-3. The anti-proliferative activity of compounds was determined as follows: BaF3-EGFR-Del/T790M cells seeded in 96 well plates (2500 cells/well) were treated with test compound (dissolved in DMSO) at a series of concentrations (4-fold dilution, top concentration: 10,000 nM). The plates were incubated for 72 h in a 37° C. incubator with 5% CO2, and the number of viable cells in each well were measured indirectly by CellTiter 96® Aqueous One Solution Cell Proliferation Assay (Promega; this assay is a colorimetric method for determining the number of viable cells through measurement of their metabolic activity by detection of enzymatic conversion of tetrazolium salts into blue formazan derivatives). Reagent (20 μL) was added into each well, and the plates were returned to the incubator for 2 h. The absorbance in each well was then measured at 490 nm using an Envision plate reader (Perkin Elmer).

[3] = target: human EGFR L858R and T790M double mutation (LT) (Homo sapiens (Human), UniProt P00533, L858R/T790M); test: Ba/F3-EGFR L858R/T790M cell anti-proliferative assay (CellTiter 96 MTS, 72 h); details: Ba/F3-EGFR L858R/T790M cells; for IC50: read-out: EGFR exon 21 L858R and T790M mutation IC50;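 on all read-outs here: Ba/F3 cells carrying the EGFR L858R/T790M double mutant are able to grow without IL-3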
Experimental: An expression vector, pLVX-IRES puro (Clontech) coding for human EGFR L858R and T790M double mutation, was transfected into HEK293 cells by the Trans-Lentiviral ORF Packaging System (Thermo Scientific), to produce virus encoding EGFR L858R and T790M double mutations. […] Ba/F3 cells expressing EGFR L858R and T790M double mutation (named Ba/F3-EGFR L858R/T790M) can proliferate in the absence of IL-3. The anti-proliferative activity of compounds was determined as follows: BaF3-EGFR L858R/T790M cells seeded in 96 well plates (2500 cells/well) were treated with test compound (dissolved in DMSO) at a series of concentrations (4-fold dilution, top concentration: 10,000 nM). The plates were incubated for 72 h in a 37° C. incubator with 5% CO2, and the number of viable cells in each well were measured indirectly by CellTiter 96® Aqueous One Solution Cell Proliferation Assay (Promega; this assay is a colorimetric method for determining the number of viable cells through measurement of their metabolic activity by detection of enzymatic conversion of tetrazolium salts into blue formazan derivatives). Reagent (20 μL) was added into each well, and the plates were returned to the incubator for 2 h. The absorbance in each well was then measured at 490 nm using an Envision plate reader (Perkin Elmer).

[4] = target: Her2 exon 20 YVMA insertion (A775_G776ins YVMA) (Homo sapiens (Human), UniProt P04626, INS775YVMA); test: Ba/F3-Her2 Exon20 YVMA cell anti-proliferative assay (CellTiter 96 MTS, 72 h); details: Ba/F3-Her2 Exon20 YVMA cells
Source text: Ba/F3 cells expressing Her2 Exon20 YVMA insertions (named Ba/F3-Her2 Exon20 YVMA) can proliferate in the absence of IL-3.

[5] = target: human EGFR exon 20 insertion NPG (H773_V774insNPG) (Homo sapiens, UniProt P00533, INS773NPG, cells depend on it); test: Ba/F3-EGFR-Exon20-NPG cell anti-proliferative assay (CellTiter 96 MTS, 72 h); details: read-out: EGFR exon 20 NPG insertion IC50
Sequence of human EGFR exon 20 insertion NPG (H773_V774insNPG) (P00533 with tags, fused parts or gaps INS773NPG limits assumed): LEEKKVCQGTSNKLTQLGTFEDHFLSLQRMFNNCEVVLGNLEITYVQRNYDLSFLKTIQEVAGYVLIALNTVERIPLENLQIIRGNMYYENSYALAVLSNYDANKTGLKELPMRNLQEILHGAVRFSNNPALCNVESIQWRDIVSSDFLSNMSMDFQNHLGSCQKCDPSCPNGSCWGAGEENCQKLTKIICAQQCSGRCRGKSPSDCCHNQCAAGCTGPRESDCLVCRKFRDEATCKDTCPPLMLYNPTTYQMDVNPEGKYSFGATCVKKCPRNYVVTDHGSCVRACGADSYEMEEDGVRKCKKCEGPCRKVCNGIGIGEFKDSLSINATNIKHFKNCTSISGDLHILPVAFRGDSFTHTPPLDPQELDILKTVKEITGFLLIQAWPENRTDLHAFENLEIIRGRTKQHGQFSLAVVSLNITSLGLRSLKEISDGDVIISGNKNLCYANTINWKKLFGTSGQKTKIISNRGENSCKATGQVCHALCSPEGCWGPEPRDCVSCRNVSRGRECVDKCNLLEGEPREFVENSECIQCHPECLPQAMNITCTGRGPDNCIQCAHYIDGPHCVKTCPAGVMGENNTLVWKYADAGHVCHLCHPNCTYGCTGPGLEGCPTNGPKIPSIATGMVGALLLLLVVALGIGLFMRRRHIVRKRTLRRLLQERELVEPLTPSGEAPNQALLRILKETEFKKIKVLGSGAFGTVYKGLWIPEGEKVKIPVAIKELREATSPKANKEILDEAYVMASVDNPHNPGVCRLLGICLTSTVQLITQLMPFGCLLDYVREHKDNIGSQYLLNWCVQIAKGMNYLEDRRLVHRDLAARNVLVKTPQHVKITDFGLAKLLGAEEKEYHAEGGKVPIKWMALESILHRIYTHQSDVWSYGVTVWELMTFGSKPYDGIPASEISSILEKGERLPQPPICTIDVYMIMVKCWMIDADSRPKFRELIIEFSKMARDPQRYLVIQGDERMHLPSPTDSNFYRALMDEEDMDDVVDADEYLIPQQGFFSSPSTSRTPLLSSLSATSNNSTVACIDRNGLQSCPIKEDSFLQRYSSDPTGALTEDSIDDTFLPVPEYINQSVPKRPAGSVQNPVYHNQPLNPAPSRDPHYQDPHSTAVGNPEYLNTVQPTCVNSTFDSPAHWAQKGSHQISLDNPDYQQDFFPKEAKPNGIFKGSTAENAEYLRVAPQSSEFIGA
Experimental: Ba/F3 cells expressing EGFR exon 20 insertions (named Ba/F3-EGFR-Exon20-NPG or Ba/F3-EGFR-Exon20-ASV) can proliferate in the absence of IL-3. The anti-proliferative activity of compounds were determined as follows: BaF3-EGFR-Exon20 cells (NPG or ASV) seeded in 96 well plates (2500 cells/well) were treated with test compound (dissolved in DMSO) at a series of concentrations (4-fold dilution, top concentration: 10,000 nM). The plates were incubated for 72 h in a 37° C. incubator with 5% CO2, and the number of viable cells in each well were measured indirectly by CellTiter 96® Aqueous One Solution Cell Proliferation Assay (Promega) This assay is a colorimetric method for determining the number of viable cells through measurement of their metabolic activity by detection of enzymatic conversion of tetrazolium salts into blue formazan derivatives. Reagent (20 μL) was added into each well, and the plates were returned to the incubator for 2 h. The absorbance in each well was then measured at 490 nm using an Envision plate reader (Perkin Elmer).

Sequence of human EGFR exon 20 insertion ASV (V769_D770insASV) (P00533 other isoform, or with tags, fused parts or gaps ins ASV behind 769): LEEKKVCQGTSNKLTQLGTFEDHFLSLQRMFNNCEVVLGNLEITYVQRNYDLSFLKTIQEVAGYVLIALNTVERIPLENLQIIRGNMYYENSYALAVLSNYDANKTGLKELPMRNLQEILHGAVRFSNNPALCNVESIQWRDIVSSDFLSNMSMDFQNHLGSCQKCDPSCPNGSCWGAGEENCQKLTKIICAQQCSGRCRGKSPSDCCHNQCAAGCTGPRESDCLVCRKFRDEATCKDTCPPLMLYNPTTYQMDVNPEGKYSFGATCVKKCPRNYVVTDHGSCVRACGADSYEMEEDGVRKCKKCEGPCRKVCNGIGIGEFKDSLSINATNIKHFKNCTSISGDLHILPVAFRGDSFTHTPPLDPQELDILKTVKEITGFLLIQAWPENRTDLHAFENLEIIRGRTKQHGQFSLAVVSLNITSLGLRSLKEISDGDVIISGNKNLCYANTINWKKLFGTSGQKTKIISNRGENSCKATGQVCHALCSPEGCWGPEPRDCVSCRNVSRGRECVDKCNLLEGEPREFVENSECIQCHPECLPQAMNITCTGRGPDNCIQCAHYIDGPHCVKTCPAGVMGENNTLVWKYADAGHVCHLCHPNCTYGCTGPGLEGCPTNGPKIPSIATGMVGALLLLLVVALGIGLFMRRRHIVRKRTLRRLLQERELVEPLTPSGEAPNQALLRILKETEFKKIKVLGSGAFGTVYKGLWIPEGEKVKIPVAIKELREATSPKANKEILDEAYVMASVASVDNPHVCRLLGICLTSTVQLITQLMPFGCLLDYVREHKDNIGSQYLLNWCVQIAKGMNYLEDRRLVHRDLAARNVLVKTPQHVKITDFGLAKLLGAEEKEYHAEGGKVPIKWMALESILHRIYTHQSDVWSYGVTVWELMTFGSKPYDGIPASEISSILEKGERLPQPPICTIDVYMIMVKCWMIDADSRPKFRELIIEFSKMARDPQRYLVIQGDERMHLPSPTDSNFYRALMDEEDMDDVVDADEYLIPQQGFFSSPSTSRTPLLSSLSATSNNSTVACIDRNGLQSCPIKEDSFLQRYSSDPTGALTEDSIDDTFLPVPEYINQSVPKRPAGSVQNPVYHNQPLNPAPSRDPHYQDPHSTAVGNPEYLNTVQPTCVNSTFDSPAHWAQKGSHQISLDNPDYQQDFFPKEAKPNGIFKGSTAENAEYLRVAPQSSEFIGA
Sequence of Her2 exon 20 YVMA insertion (A775_G776ins YVMA) (P04626 other isoform, or with tags, fused parts or gaps ins YVMA behind 775): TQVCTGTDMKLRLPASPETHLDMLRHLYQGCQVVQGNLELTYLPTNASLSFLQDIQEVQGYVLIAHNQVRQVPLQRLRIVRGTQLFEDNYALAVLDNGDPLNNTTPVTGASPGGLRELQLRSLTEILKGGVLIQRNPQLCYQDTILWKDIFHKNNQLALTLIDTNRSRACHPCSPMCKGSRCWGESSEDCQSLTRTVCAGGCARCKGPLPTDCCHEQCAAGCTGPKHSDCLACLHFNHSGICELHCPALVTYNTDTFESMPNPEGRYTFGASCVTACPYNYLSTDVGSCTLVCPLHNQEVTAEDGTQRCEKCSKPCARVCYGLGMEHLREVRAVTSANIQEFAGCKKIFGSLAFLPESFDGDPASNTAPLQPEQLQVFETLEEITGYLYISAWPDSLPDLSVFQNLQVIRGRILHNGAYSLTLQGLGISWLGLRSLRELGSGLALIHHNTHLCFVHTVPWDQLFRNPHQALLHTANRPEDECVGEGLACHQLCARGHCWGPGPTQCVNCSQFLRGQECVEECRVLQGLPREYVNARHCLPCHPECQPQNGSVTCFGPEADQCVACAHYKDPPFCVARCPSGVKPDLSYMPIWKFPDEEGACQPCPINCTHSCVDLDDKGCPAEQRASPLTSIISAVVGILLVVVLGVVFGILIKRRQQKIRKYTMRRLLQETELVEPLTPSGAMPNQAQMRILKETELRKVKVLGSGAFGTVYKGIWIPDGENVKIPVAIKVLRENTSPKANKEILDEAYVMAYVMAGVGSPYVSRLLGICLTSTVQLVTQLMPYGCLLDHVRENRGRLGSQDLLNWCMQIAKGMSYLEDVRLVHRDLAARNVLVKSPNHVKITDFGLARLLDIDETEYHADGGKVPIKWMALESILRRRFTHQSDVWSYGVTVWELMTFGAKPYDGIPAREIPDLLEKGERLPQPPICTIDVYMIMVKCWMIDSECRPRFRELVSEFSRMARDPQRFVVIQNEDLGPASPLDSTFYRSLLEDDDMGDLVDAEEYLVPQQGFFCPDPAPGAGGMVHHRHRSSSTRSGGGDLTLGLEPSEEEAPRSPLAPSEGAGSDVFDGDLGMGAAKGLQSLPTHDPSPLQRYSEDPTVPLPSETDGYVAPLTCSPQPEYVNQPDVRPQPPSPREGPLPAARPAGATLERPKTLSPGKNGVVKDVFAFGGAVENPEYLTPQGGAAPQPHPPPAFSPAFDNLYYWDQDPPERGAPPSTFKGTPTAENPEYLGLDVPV
Sequence of human EGFR L858R and T790M double mutation (LT) (P00533 25-1210 T790M/L858R): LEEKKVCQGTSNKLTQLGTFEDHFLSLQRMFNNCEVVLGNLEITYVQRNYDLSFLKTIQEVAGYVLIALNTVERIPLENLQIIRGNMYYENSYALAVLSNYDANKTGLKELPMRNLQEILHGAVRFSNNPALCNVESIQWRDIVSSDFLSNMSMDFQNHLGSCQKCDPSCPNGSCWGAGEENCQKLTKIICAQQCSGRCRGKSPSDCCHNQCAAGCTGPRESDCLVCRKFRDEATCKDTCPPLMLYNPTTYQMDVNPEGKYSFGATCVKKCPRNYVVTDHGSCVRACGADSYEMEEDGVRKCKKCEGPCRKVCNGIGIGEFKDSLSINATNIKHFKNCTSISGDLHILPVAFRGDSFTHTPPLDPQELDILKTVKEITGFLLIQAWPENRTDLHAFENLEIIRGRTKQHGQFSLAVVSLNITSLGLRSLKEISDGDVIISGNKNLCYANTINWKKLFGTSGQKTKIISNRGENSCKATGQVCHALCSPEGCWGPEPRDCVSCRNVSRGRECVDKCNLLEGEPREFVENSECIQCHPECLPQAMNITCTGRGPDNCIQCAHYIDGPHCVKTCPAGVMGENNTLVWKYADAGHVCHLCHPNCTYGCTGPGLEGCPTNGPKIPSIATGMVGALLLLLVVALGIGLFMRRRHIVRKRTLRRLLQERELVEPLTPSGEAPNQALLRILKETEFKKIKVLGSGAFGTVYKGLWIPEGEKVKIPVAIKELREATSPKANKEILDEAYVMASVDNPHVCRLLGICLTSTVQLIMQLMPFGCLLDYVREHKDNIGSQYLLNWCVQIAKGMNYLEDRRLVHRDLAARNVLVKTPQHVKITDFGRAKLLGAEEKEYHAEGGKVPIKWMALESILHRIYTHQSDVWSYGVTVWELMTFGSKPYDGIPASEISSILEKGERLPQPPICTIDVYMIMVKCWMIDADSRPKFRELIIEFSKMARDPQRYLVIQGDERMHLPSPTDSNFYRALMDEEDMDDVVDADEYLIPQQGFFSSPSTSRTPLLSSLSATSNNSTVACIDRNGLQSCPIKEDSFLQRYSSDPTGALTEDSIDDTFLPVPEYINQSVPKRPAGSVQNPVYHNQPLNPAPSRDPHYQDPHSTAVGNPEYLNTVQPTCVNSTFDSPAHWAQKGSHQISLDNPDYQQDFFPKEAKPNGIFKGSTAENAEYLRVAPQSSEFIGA

C=CC(=O)Nc1cc(Nc2nccc(-c3cn(C)c4cc(-c5cnn(C)c5)ccc34)n2)c(OC)cc1N(C)CCN(C)C [Example 95, N-(2-((2-(dimethylamino)ethyl)(methyl)amino)-4-methoxy-5-((4-(1-methyl-6-(1-methyl-1H-pyrazol-4-yl)-1H-indol-3-yl)pyrimidin-2-yl)amino)phenyl)acrylamide]
IC50 [1]: < 100 nM | IC50 [2]: < 100 nM | IC50 [3]: < 100 nM | IC50 [4]: 100 to 500 nM

C=CC(=O)Nc1cc(Nc2nccc(-c3c(C(=O)NCCOC)n(C)c4ccccc34)n2)c(OC)cc1N(C)CCN(C)C [Example 93, 3-(2-((5-acrylamido-4-((2-(dimethylamino)ethyl)(methyl)amino)-2-methoxyphenyl)amino)pyrimidin-4-yl)-N-(2-methoxyethyl)-1-methyl-1H-indole-2-carboxamide]
IC50 [1]: 500 to 1000 nM | EGFR exon 19 deletion and T790M mutation IC50 [2]: B (Group B compounds have an IC50 value for the indicated mutant between about 100 to about 500 nM) | EGFR exon 21 L858R and T790M mutation IC50 [3]: C (Group C compounds have an IC50 value for the indicated mutant between greater than about 500 to about 1 μM) | IC50 [4]: > 1000 nM

C=CC(=O)Nc1cc(Nc2nccc(-c3cn(C)c4c(C(=O)OC(C)C)cccc34)n2)c(OC)cc1N(C)CCN(C)C [Example 85, isopropyl 3-(2-((5-acrylamido-4-((2-(dimethylamino)ethyl)(methyl)amino)-2-methoxyphenyl)amino)pyrimidin-4-yl)-1-methyl-1H-indole-7-carboxylate]
IC50 [1]: 100 to 500 nM | IC50 [2]: < 100 nM | IC50 [3]: < 100 nM | IC50 [4]: 100 to 500 nM

C=CC(=O)Nc1cc(Nc2ncc(NC(=O)NC)c(-c3cn(C)c4ccccc34)n2)c(OC)cc1N(C)CCN(C)C [Example 99, N-(2-((2-(dimethylamino)ethyl)(methyl)amino)-4-methoxy-5-((4-(1-methyl-1H-indol-3-yl)-5-(3-methylureido)pyrimidin-2-yl)amino)phenyl)acrylamide]
IC50 [1]: 500 to 1000 nM | IC50 [2]: > 1000 nM | IC50 [3]: > 1000 nM | IC50 [4]: > 1000 nM

C=CC(=O)Nc1cc(Nc2ncc(P(C)(C)=O)c(-c3cn(C)c4ccccc34)n2)c(OC)cc1N(C)CCN(C)C [Example 96, N-(2-((2-(dimethylamino)ethyl)(methyl)amino)-5-((5-(dimethylphosphoryl)-4-(1-methyl-1H-indol-3-yl)pyrimidin-2-yl)amino)-4-methoxyphenyl)acrylamide]
IC50 [1]: > 1000 nM | EGFR exon 19 deletion and T790M mutation IC50 [2]: B (Group B compounds have an IC50 value for the indicated mutant between about 100 to about 500 nM) | EGFR exon 21 L858R and T790M mutation IC50 [3]: B (Group B compounds have an IC50 value for the indicated mutant between about 100 to about 500 nM) | IC50 [4]: > 1000 nM

C=CC(=O)Nc1cc(Nc2nccc(-c3c(C(=O)N(C)C)n(C)c4ccccc34)n2)c(OC)cc1N(C)CCN(C)C [Example 92, 3-(2-((5-acrylamido-4-((2-(dimethylamino)ethyl)(methyl)amino)-2-methoxyphenyl)amino)pyrimidin-4-yl)-N,N,1-trimethyl-1H-indole-2-carboxamide]
IC50 [1]: < 100 nM | IC50 [2]: < 100 nM | IC50 [3]: < 100 nM | IC50 [4]: 100 to 500 nM

C=CC(=O)Nc1cc(Nc2nccc(-c3cn(C)c4cc(C(=O)OC(C)C)ccc34)n2)c(OC)cc1N(C)CCN(C)C [Example 84, isopropyl 3-(2-((5-acrylamido-4-((2-(dimethylamino)ethyl)(methyl)amino)-2-methoxyphenyl)amino)pyrimidin-4-yl)-1-methyl-1H-indole-6-carboxylate]
IC50 [1]: 500 to 1000 nM | IC50 [2]: < 100 nM | IC50 [3]: < 100 nM | IC50 [4]: 500 to 1000 nM

C=CC(=O)Nc1cc(Nc2ncc(C#N)c(-c3nn(C)c4ccccc34)n2)c(OC)cc1N(C)CCN(C)C [Example 98, N-(5-((5-cyano-4-(1-methyl-1H-indazol-3-yl)pyrimidin-2-yl)amino)-2-((2-(dimethylamino)ethyl)(methyl)amino)-4-methoxyphenyl)acrylamide]
IC50 [1]: < 100 nM | IC50 [5]: < 100 nM | IC50 [2]: < 100 nM | IC50 [4]: < 100 nM

C=CC(=O)Nc1cc(Nc2ncnc(-c3c(C4CCOCC4)n(C)c4ccccc34)n2)c(OC)cc1N(C)CCN(C)C [Example 4, N-(2-((2-(dimethylamino)ethyl)(methyl)amino)-4-methoxy-5-((4-(1-methyl-2-(tetrahydro-2H-pyran-4-yl)-1H-indol-3-yl)-1,3,5-triazin-2-yl)amino)phenyl)acrylamide]
IC50 [1]: 100 to 500 nM | IC50 [5]: < 100 nM | EGFR exon 19 deletion and T790M mutation IC50 [2]: B (Group B compounds have an IC50 value for the indicated mutant between about 100 to about 500 nM) | IC50 [4]: 100 to 500 nM

C=CC(=O)Nc1ccc(OC)c(Nc2ncc(Cl)c(-c3cn(C)c4cc(OCCN5CCN(C)CC5)ccc34)n2)c1 [Example 18, N-(3-((5-chloro-4-(1-methyl-6-(2-(4-methylpiperazin-1-yl)ethoxy)-1H-indol-3-yl)pyrimidin-2-yl)amino)-4-methoxyphenyl)acrylamide]
IC50 [1]: > 1000 nM | IC50 [5]: 100 to 500 nM | IC50 [2]: < 100 nM | IC50 [4]: > 1000 nM

C=CC(=O)Nc1cc(Nc2ncc(C(=O)OCC#N)c(-c3cn(C)c4ccccc34)n2)c(OC)cc1N(C)CCN(C)C [Example 38, cyanomethyl 2-((5-acrylamido-4-((2-(dimethylamino)ethyl)(methyl)amino)-2-methoxyphenyl)amino)-4-(1-methyl-1H-indol-3-yl)pyrimidine-5-carboxylate]
IC50 [1]: < 100 nM | IC50 [5]: < 100 nM | IC50 [2]: < 100 nM | IC50 [4]: < 100 nM

C=CC(=O)Nc1cc(Nc2nccc(-c3cn(C)c4cccc(C(=O)OC)c34)n2)c(OC)cc1N(C)CCN(C)C [Example 80, methyl 3-(2-((5-acrylamido-4-((2-(dimethylamino)ethyl)(methyl)amino)-2-methoxyphenyl)amino)pyrimidin-4-yl)-1-methyl-1H-indole-4-carboxylate]
IC50 [1]: > 1000 nM | IC50 [5]: > 1000 nM | EGFR exon 19 deletion and T790M mutation IC50 [2]: D (Group D compounds have an IC50 value for the indicated mutant greater than about 1 μM) | IC50 [4]: > 1000 nM

C=CC(=O)Nc1cc(Nc2ncc(NC(=O)C(C)C)c(-c3cn(C)c4ccccc34)n2)c(OC)cc1N(C)CCN(C)C [Example 39, N-(2-((2-(dimethylamino)ethyl)-(methyl)amino)-5-((5-isobutyramido-4-(1-methyl-1H-indol-3-yl)pyrimidin-2-yl)amino)-4-methoxyphenyl)-acrylamide]
IC50 [1]: 100 to 500 nM | IC50 [5]: < 100 nM | IC50 [2]: > 1000 nM | IC50 [4]: > 1000 nM

C=CC(=O)Nc1cc(Nc2ncc(C(=O)OC3CCC3)c(-c3cn(C)c4ccccc34)n2)c(OC)cc1N(C)CCN(C)C [Example 14, cyclobutyl 2-((5-acrylamido-4-((2-(dimethylamino)ethyl)(methyl)amino)-2-methoxyphenyl)amino)-4-(1-methyl-1H-indol-3-yl)pyrimidine-5-carboxylate]
IC50 [1]: < 100 nM | IC50 [5]: < 100 nM | IC50 [2]: < 100 nM | IC50 [4]: < 100 nM

C=CC(=O)Nc1cc(Nc2ncc(NC(=O)C(C)(C)C)c(-c3cn(C)c4ccccc34)n2)c(OC)cc1OC [Example 42, N-(2,4-dimethoxy-5-((4-(1-methyl-1H-indol-3-yl)-5-pivalamidopyrimidin-2-yl)amino)phenyl)acrylamide]
IC50 [1]: > 1000 nM | IC50 [5]: > 1000 nM | IC50 [2]: > 1000 nM | IC50 [4]: > 1000 nM
